This experiment concerns NaIO3-treated ARPE-19 cells. Kind of experiment: NaIO3-induced degradation of ARPE-19 cells, MTT cell viability assay. Type of experiment: cell-based, human. As to conditions: 16 hours. On the procedure:
Cell Culture: ARPE-19 passages 3-7 were used for all experiments. Cells were cultured in %-well plates in DMEM:F12 with 10% of FBS, and incubated at 37° C. with 5% CO2 humidified atmosphere. […] Cell Viability Assay: The colorimetric MTT assay was used to check cell viability. […] At the same time different MBTs, labeled 1 through 10 and summarized in FIG. 2 and Table 2 below, were given to the treatment group at a concentration of 10^6 CFU. After 16 hours of incubation, the absorbance cell viability was evaluated by spectrophotometrically using a microplate reader at 600 nm. Cell Culture: ARPE-19 passages 3-7 were used for all experiments. Cells were cultured in 96-well plates in DMEM:F12 with 10% of FBS, and incubated at 37° C. with 5% CO2 humidified atmosphere. […] Cell Viability Assay: The colorimetric MTT assay was used to check cell viability. […] In the control group, cells were treated only with DMEM:F12 (control media; labeled 'mock-treated' in FIG. 3). […] After 16 hours of incubation, the absorbance cell viability was evaluated by spectrophotometrically using a microplate reader at 600 nm. […] After 16 hours of incubation, the absorbance cell viability was evaluated by spectrophotometrically using a microplate reader at 600 nm. […] After 16 hours of incubation, the absorbance cell viability was evaluated by spectrophotometrically using a microplate reader at 600 nm.

`O=C(CO)[C@@H](O)[C@H](O)[C@@H](O)C(=O)O` [5-keto-gluconate]: the “cell viability of NaIO3-treated ARPE-19 cells compared to controls (MTT)” value (1200 μg/ml NaIO3, all tested concentrations of 5-keto-gluconate (0.1%, 0.2%, 0.4%, 0.5% w/v)) is listed as “improved cell viability”.
In the case of `O=C(O)C(=O)[C@@H](O)[C@H](O)[C@H](O)CO` [2-keto-gluconate], under “1200 μg/ml NaIO3, 0.1% (w/v) of 2-keto-gluconate”, the “cell viability of NaIO3-treated ARPE-19 cells compared to controls (MTT)” value is given as “improved cell viability”.

The values above are taken from patent publication US20240066075A1, “METHODS AND USES OF MICROBIOME COMPOSITIONS, COMPONENTS, OR METABOLITES FOR TREATING EYE DISORDERS” (MarvelBiome, Inc., priority 2021, published 2024).
